The values below are quoted from earlier work in article PMC10377753, “Pharmacokinetic and pharmacodynamic properties of polymyxin B in Escherichia coli and Klebsiella pneumoniae murine infection models” (Journal of Antimicrobial Chemotherapy, 2023).

For this series, the system named is plasma proteins. To be noted: mouse, spiked pooled plasma, ultracentrifugation; cited from earlier work. From the text:
Protein binding of polymyxin B is known to be high. However, a difference was found between the current study (unbound fraction 20%) compared with previous studies (8.6% for polymyxin B,[8] 8.4% for colistin[5]), which affects the PTA. In the present study, ultrafiltration was used for determining the unbound fraction, whilst ultracentrifugation was used in the other studies. With the ultrafiltration method, correction for the NSB to the ultrafiltration membranes was needed. In addition, differences in mouse plasma used for determination of polymyxin B protein binding may (partly) explain the ...

Take colistin: the Unbound fraction is on record as 8.4%.
